Source: patent publication US12435077B2, “Oxazolidinone compound and methods of use thereof as an antibacterial agent” (priority 2020, dated 2025)

Legend:
[1] = in vivo; conditions: male, dog, iv
Experimental: Plasma pharmacokinetic parameters for clearance, volume of distribution, half-life, mean residence time (MRT) and oral bioavailability were determined in dogs from oral administration and IV administration studies. Four male dogs, typically weighing 8-12 kilograms, were fasted overnight prior to dosing. Compounds were prepared for oral and IV dosing by addition to a vehicle, depending on the dose used. For a typical preparation, 1 mg per mL (IV) or 1.5 mg per mL (oral) of test compound was added to vehicle comprised of 20% dimethyl sulfoxide (DMSO), 60% polyethylene glycol 400 (PEG400) and 20% water. IV formulation was administered to two dogs via the saphenous or cephalic vein, and oral dosing was administered to two dogs via oral gavage. Blood was collected by the cephalic or jugular vein, typically at predose, 2, 8, 15, 30 mins, 1, 2, 4, 6, 8 and 24 hours post-dose for IV, and at predose, 15, 30 mins, 1, 2, 4, 6, 8, and 24 hours for oral dosing. Samples were collected in K2EDTA tubes, stored on ice, and centrifuged. Plasma was transferred to a micro titer plate and stored at −70° C. until analysis. Plasma samples were extracted using protein precipitation and analyzed by liquid chromatography separation followed by mass spec detection (LC-MS/MS), using a standard curve for each compound. Plasma pharmacokinetic parameters were calculated for IV and oral dosing data by non-compartmental methods. Oral bioavailability was determined as the ratio of the dose-normalized plasma area under the curve (AUC) following oral dosing verses IV dosing. Plasma pharmacokinetic parameters for clearance, volume of distribution, half-life, and mean residence time (MRT) were determined in dogs from IV cassette administration studies. Two male dogs, typically weighing 8-12 kilograms, were fasted overnight prior to dosing. Compounds were prepared for IV dosing by addition to a vehicle, depending on the dose used. For a typical preparation, 1 mg per mL (IV) of up to 5 test compounds were added to vehicle comprised of 20% dimethyl sulfoxide (DMSO), 60% polyethylene glycol 400 (PEG400) and 20% water. IV formulation was administered to two dogs via the saphenous or cephalic vein. Blood was collected by the cephalic or jugular vein, typically at predose, 2, 8, 15, 30 mins, 1, 2, 4, 6, 8 and 24 hours post-dose. Samples were collected in K2EDTA tubes, stored on ice, and centrifuged. Plasma was transferred to a micro titer plate and stored at −70° C. until analysis. Plasma samples were extracted using protein precipitation and analyzed by liquid chromatography separation followed by mass spec detection (LC-MS/MS), using a standard curve for each compound. Plasma pharmacokinetic parameters were calculated by non-compartmental methods.

[2] = in vivo; conditions: male, rat, iv
Experimental: Plasma pharmacokinetic parameters for clearance, volume of distribution, half-life and oral bioavailability were determined in rats from oral administration and IV administration studies. 4 male rats, typically weighing 225-260 gram, were fasted overnight prior to dosing. Compounds were prepared for oral and IV dosing by addition to a vehicle, depending on the dose used. For a typical preparation, 1 mg per mL (IV) or 1.5 mg per mL (oral) of test compound was added to vehicle comprised of 20% dimethyl sulfoxide (DMSO), 60% polyethylene glycol 400 (PEG400) and 20% water. Intravenous (IV) formulation was administered to two rats via pre-cannulated jugular vein, and oral dosing was administered to two rats via oral gavage. Blood was collected by pre-cannulated artery, typically at predose, 2, 8, 15, 30 min, 1, 2, 4, 6, and 8 hours post-dose for IV, and at predose, 15, 30 mins, 1, 2, 4, 6, 8 hours for oral dosing. Samples were collected in K2EDTA tubes, stored on ice, and centrifuged. Plasma was transferred to a micro titer plate and stored at −70° C. until analysis. Plasma samples were extracted using protein precipitation and analyzed by liquid chromatography separation followed by mass spec detection (LC-MS/MS), using a standard curve for each compound. Plasma pharmacokinetic parameters were calculated for IV and oral dosing data by non-compartmental methods. Oral bioavailability was determined as the ratio of the dose-normalized plasma area under the curve (AUC) following oral dosing vs. IV dosing. Plasma pharmacokinetic parameters for clearance, volume of distribution, half-life and mean residence time (MRT) were determined in rats from IV cassette administration studies. Two male rats typically weighing 225-260 gram, were fasted overnight prior to dosing. Compounds were prepared for IV dosing by addition to a vehicle, depending on the dose used. For a typical preparation, 1 mg per mL (IV) of up to 5 test compounds were added to vehicle comprised of 20% dimethyl sulfoxide (DMSO), 60% polyethylene glycol 400 (PEG400) and 20% water. IV formulation was administered to two rats via pre-cannulated jugular vein. Blood was collected by pre-cannulated artery, typically at predose, 2, 8, 15, 30 mins, 1, 2, 4, 6, and 8 hours postdose. Samples were collected in K2EDTA tubes, stored on ice, and centrifuged. Plasma was transferred to a micro titer plate and stored at −70° C. until analysis. Plasma samples were extracted using protein precipitation and analyzed by liquid chromatography separation followed by mass spec detection (LC-MS/MS), using a standard curve for each compound. Plasma pharmacokinetic parameters were calculated by non-compartmental methods.

[3] = Plasma protein binding, rat plasma; format: in vitro ADME
Experimental: (§1) Binding of compounds to plasma proteins from rat and dog was determined by equilibrium dialysis of the appropriate species plasma at 37° C. for 4 hours in the presence of 2.5 uM of test compound. Plasma samples were precipitated and separated by centrifugation. The supernatant was analyzed by mass spec detection (LC-MS/MS), using a standard curve for each compound. The fraction of unbound compound was calculated per the following: • Fraction Unbound (fu)=Peak Area Ratiobuffer/Peak Area Ratioplasma • where • Peak Area Ratiobuffer=Peak area ratio of analyte/internal standard in buffer • Peak Area Ratioplasma=Peak area ratio of analyte/internal standard in plasma

[4] = system: Mycobacterium tuberculosis (Mtb-GFP; H37Rv pMSP12::GFP); format: cell-based; conditions: pH 6.8, 7-day growth, 95% growth inhibition; for Mtb Cho MITC95: cholesterol as carbon source; for Mtb Glu MITC95: glucose as carbon source
[5] = Plasma protein binding, dog plasma; format: in vitro ADME
Experimental: as §1

[6] = system: mitochondrial protein synthesis in HepG2 cells; test: Mitochondrial protein synthesis assay; format: cell-based; conditions: Homo sapiens, 96 h, 4 days, COX-I vs SDH-A / Janus Green, read-out: MPS IC50
Experimental: Inhibition of mitochondrial protein synthesis was assessed in HepG2 cells by comparing the levels of two subunits of oxidative phosphorylation enzyme complexes, subunit I of Complex IV (COX-I) and the 70 kDa subunit of Complex II (SDH-A). COX-I is mitochondrial DNA encoded and SDH-A is nuclear DNA encoded.

[7] = comparison compounds from WO2017/070024, read-out: Rat fu
[8] = comparison compounds from WO2017/070024, read-out: Dog fu

Compound `COC(=O)NC[C@H]1CN(c2cc(F)c(N3CCS(=O)(=O)CC3)c(F)c2)C(=O)O1` [Example 1, methyl ({(5S)-3-[4-(1,1-dioxo-1λ^6-thiomorpholin-4-yl)-3,5-difluorophenyl]-2-oxo-1,3-oxazolidin-5-yl}methyl)carbamate] has an MRT [1] of 12.6 h, a clearance [1] of 1.9 mL/min/kg and an MRT [2] of 1.7 h. It also gave a Vd [2] of 0.9 L/kg, a clearance [2] of 8.5 mL/min/kg and a fraction unbound at 4 h, 2.5 uM ([3]; equilibrium dialysis, 37° C., 4 hours, 2.5 uM, read-out: Rat fu) of 0.42. For the same compound, the “Mtb Cho MITC95” value [4] was 1.16 µM, the “Mtb Glu MITC95” value [4] was 0.71 µM and the fraction unbound at 4 h, 2.5 uM ([5]; equilibrium dialysis, 37° C., 4 hours, 2.5 uM, read-out: Dog fu) was 0.69.
With `CC(=O)NC[C@H]1CN(c2ccc(N3CCOCC3)c(F)c2)C(=O)O1` [linezolid] the IC50 [6] was 8 µM, the “Mtb Cho MITC95” value [4] was 3.14 µM and the “Mtb Glu MITC95” value [4] was 4.58 µM.
For `NC[C@H]1CN(c2cc(F)c(N3CCOCC3)c(F)c2)C(=O)O1` [Example 59 from WO2017/070024], the MRT [1] was 1.3 h, the Vd [1] was 4.2 L/kg and the clearance [1] was 53 mL/min/kg. It also gave an MRT [2] of 0.8 h, a Vd [2] of 2 L/kg and a clearance [2] of 43 mL/min/kg. It also gave a fraction unbound at 4 h, 2.5 uM [3, 7] of 0.57 and a fraction unbound at 4 h, 2.5 uM [5, 8] of 0.81.
In the case of `NC[C@H]1CN(c2cnc(N3CCS(=O)(=O)CC3)c(F)c2)C(=O)O1` [Example 48 from WO2017/070024], the MRT [1] is reported as 1.3 h, the Vd [1] is reported as 1.5 L/kg and the clearance [1] is reported as 18 mL/min/kg. For the same compound, the MRT [2] was 0.5 h, the Vd [2] was 2.5 L/kg and the clearance [2] was 85 mL/min/kg. The fraction unbound at 4 h, 2.5 uM [3, 7] was 0.83 and the fraction unbound at 4 h, 2.5 uM [5, 8] was 0.87.
